Data reported in article PMC6438679, “New lupeol esters as active substances in the treatment of skin damage” (PLoS ONE, 2019).
Where a name gives a salt, the structure may show the parent alone.

Legend:
[1] = tested on: Reconstructed Human Epidermis (RHE) EpiDerm; experiment: In vitro Skin Irritation Test on Reconstructed Human Epidermis (MTT viability); conditions: for increase of cell concentration in comparison to control samples: RHE model, proliferation
Method: A Skin Irritation Test was prepared according to SOP (Standard Operation Protocol) of In vitro Skin Irritation Test (ECVAM): Human Skin Model, EpiDerm-200, Version: 7.0, 30th Oct 2007.
Standard EpiDermFT kit (MatTek Corporation) consisted of 24 tissues. Costar Snapwell single well tissue culture plate inserts had the surface area of about 1.0 cm^2 and the diameter of about 1.2 cm. Moreover inserts were equipped with pores (size 0.4 μm diameter). Before test, all tissues were visually inspected if there are any physical imperfections. […] The culture medium was fed through a microporous membrane. The tissue contained 8–12 cell layers plus stratum corneum (basal, spinous, and granular layers) [35].
In vitro skin irritation test was prepared according to the procedure described by Kandarova et al. [35]. On the first day, tissues were topically exposed to the oil solutions of tested triterpenes. White crystals of each compound were dissolved in caprylic and capric triglyceride (Crodamol GTCC, Croda). The esters concentration in the solutions was 0.5% (m/m). Three tissues were used for each tested substance, as well as for the positive and negative control. Positive control solution consisted of 5% aq. solution of SDS (Sodium Dodecyl Sulfate, Mattek), and a negative control solution consisted of Caprylic and Capric Triglycerides (Crodamol GTCC, Croda). Chemical exposure time was 60 min, during which, for 35 min, the tissues were kept in an incubator at 37°C (chamber Heraeus, Kendro). The test substances were then removed from the tissue surface by an extensive washing procedure using DPBS (phosphate-buffered saline, pH = 7.4, Mattek). The tissue inserts were blotted and transferred to fresh medium.
After 24 hours of incubation, the medium was exchanged and the tissues were incubated for an additional 18 hours. After 42 hours of incubation time, the tissues were transferred into a yellow solution of MTT (3-(4,5-dimethylthiazol-2-yl)-2,5-diphenyltetrazolium bromide, Mattek) and incubated for a further 3 hours. The resultant purple-blue formazan salt, formed mainly by mitochondrial metabolism, was extracted after 2 hours with isopropanol, pure (Mattek). The optical density (OD570) of the extracted formazan solution was determined using a spectrophotometer (Biotek, PowerWave XS). Cells viability assay was calculated referring to the negative control tissues. A substance is classified as an irritant if the tissue viability relative to the negative control treated tissues is reduced below 50%.

Structure (SMILES)	melting point [°C]	increase of cell concentration in comparison to control samples [1]	Viability [%] / SD ([1]; Epiderm, 0.5% (m/m) in caprylic and capric triglyceride, 60 min exposure, 42 h incubation, MTT, relative to negative control, n = 3) [%]
C=C(C)[C@@H]1CC[C@]2(C)CC[C@]3(C)[C@H](CC[C@@H]4[C@@]5(C)CC[C@H](OC(=O)c6ccncc6)C(C)(C)[C@@H]5CC[C@]43C)[C@@H]12 [Compound 4, Lupeol isonicotinate]	179 to 183	more than 30%	–
C=C(C)[C@@H]1CC[C@]2(C)CC[C@]3(C)[C@H](CC[C@@H]4[C@@]5(C)CC[C@H](OC(=O)c6ccccc6OC(C)=O)C(C)(C)[C@@H]5CC[C@]43C)[C@@H]12 [Compound 6, Lupeol acetylsalicylate]	226 to 229	–	–
C=C(C)C1CCC2(C)CCC3(C)C(CCC4C5(C)CCC(OC(C)=O)C(C)(C)C5CCC43C)C12 (stereo not drawn) [Compound 2, Lupeol acetate]	216 to 219	more than 30%	–
CCCCCCCCCCCCOS(=O)(=O)[O-].[Na+] [PC, Sodium Dodecyl Sulfate, reference compound]	–	–	28.1
C=C(C)C1CCC2(C)CCC3(C)C(CCC4C5(C)CCC(OC(=O)CC)C(C)(C)C5CCC43C)C12 (stereo not drawn) [Compound 3, Lupeol propionate]	220 to 222	more than 30%	–
C=C(C)C1CCC2(C)CCC3(C)C(CCC4C5(C)CCC(OC(=O)CCC(=O)O)C(C)(C)C5CCC43C)C12 (stereo not drawn) (as salt: succinate) [Compound 5, Lupeol succinate]	221 to 223	–	–
